Patent publication US6127397A, “Optically active (R)-(E)-(4-substituted-phenyl-1,3-dithiolan-2-ylidene)-1-imidazolylaceto nitrile derivative, antifungal composition comprising the same, and method for producing the same” (Nihon Nohyaku Co., Ltd., priority 1996, dated 2000)
≈ marks a conversion by molar mass, not a printed value. Like-named read-outs stand apart in the source and are kept apart here.

Key:
Assay in all cases: In vitro antifungal activity (MIC), SGA agar plate, 27° C., 7 days
T. rubrum IFO 5805 = type: cell-based, Trichophyton rubrum; settings: for MIC: Trichophyton rubrum, IFO5805, 168 h, read-out: MIC value against Trichophyton
[1] = test system: Trichophyton rubrum IFO 6204; type: cell-based; settings: for MIC: Trichophyton rubrum, IFO6204, 168 h, T. rubrum IFO 6204, read-out: MIC value against Trichophyton
Protocol: (§1) In vitro antifungal activity of compounds against dormatophytes
Trichophyton rubrunm IFO 6204
(§2) Preparation of inoculation fungal solution:
(§3) To a strain cultured on Sabouraud's glucose agar (SGA) slant medium at 27° C. for 1 to 2 weeks was added 0.1% (v/v) Tween 80-added sterilized physiological saline solution, followed by rubbing with a platinum spatula. The resulting suspension of conidia was filtered through a sterilized gauze to eliminate mycelium mass. Thereafter, the conidia was counted by an erythrocytometer (Thoma) The suspension of the conidia was diluted with 0.1% (v/v) Tween 80-added sterilized physiological saline solution so as to have a concentration of 1×10^6 conidia/ml to obtain an inoculation fungal solution.
(§4) Each compound was dissolved into dimethyl sulfoxide (DMSO) to prepare a diluent having a […]. The concentration of DMSO in a medium was adjusted to hair 1% (v/v).
(§5) Measurement of antifungal activity:
(§6) A SGA plate medium containing a given amount of a compound (20 ml/dish) was prepared. A loopful of the inoculation fungal solution was applied in the form of a line to each plate medium at a length of about 15 mm, and was allowed to stand for cultivation at 27° C. for 7 days. The minimum inhibitory concentration (MIC) of the compound at which a growth of a microorganism cannot be visually recognized was determined.

[2] = test system: Trichophyton mentagrophytes IFO 5811; type: cell-based; settings: for MIC: Trichophyton mentagrophytes, IFO5811, 168 h, T. mentagrophytes IFO 5811, read-out: MIC value against Trichophyton
Protocol: as §1
Trichophyton mentagrophytes IFO 5811
as §2, §3, §4, §5, §6

[3] = test system: Trichophyton mentagrophytes TIMM 2789; type: cell-based; settings: for MIC: Trichophyton mentagrophytes, TIMM2789, 168 h, T. mentagrophytes TIMM 2789, read-out: MIC value against Trichophyton
Protocol: as §1
Trichophyton mentagrophytes TIMM 2789
as §2, §3, §4, §5, §6

MIC value against Trichophyton (T. rubrum IFO 5805) [µg/mL] | MIC (T. rubrum IFO 5805) [µg/mL] | MIC value against Trichophyton ([1]; T. rubrum IFO 6204) [µg/mL] | MIC [1] [µg/mL] | MIC value against Trichophyton ([2]; T. mentagrophytes IFO 5811) [µg/mL] | MIC [2] [µg/mL] | MIC value against Trichophyton ([3]; T. mentagrophytes TIMM 2789) [µg/mL] | MIC [3] [µg/mL] | MIC value against Trichophyton ([1]; T. rubrum IFO 6204, listed as 2') [µg/mL] | MIC value against Trichophyton ([3]; T. mentagrophytes TIMM 2789, listed as 6') [µg/mL] | MIC value against Trichophyton (T. rubrum IFO 5805; listed as 8') [µg/mL] | MIC value against Trichophyton ([2]; T. mentagrophytes IFO 5811, listed as 8') [µg/mL] | MIC value against Trichophyton ([2]; T. mentagrophytes IFO 5811, listed as 12') [µg/mL] | SMILES
0.64 (≈ 2.11 µM) | 0.32 (≈ 1.05 µM) | 0.32 (≈ 1.05 µM) | 0.16 (≈ 0.527 µM) | > 0.64 | 0.64 (≈ 2.11 µM) | 0.64 (≈ 2.11 µM) | 0.32 (≈ 1.05 µM) |  |  |  |  |  | N#C/C(=C1/SC[C@@H](c2ccc(F)cc2)S1)n1ccnc1 [Compound No. 1, (R)-(E)-[4-(4-fluorophenyl)-1,3-dithicolan-2-ylidene]-1-imidazolylacetonitrile]
> 0.64 | 0.64 (≈ 2 µM) | 0.16 (≈ 0.5 µM) |  | > 0.64 | 0.64 (≈ 2 µM) | > 0.64 | 0.32 (≈ 1 µM) | 0.64 (≈ 2 µM) |  |  |  |  | N#C/C(=C1/SC[C@@H](c2cccc(Cl)c2)S1)n1ccnc1 [Compound No. 2]
 | > 0.08 | > 0.08 | 0.08 (≈ 0.22 µM) |  | > 0.08 |  | > 0.08 |  |  |  |  |  | N#C/C(=C1/SC[C@@H](c2ccc(Br)cc2)S1)n1ccnc1 [compound 3]
 | > 0.08 | > 0.08 | 0.08 (≈ 0.25 µM) |  | > 0.08 |  | > 0.08 |  |  |  |  |  | N#C/C(=C1/SC[C@@H](c2ccc(Cl)cc2)S1)n1ccnc1 [compound 4]
 | 0.04 (≈ 0.132 µM) |  | 0.01 (≈ 0.033 µM) | 0.16 (≈ 0.527 µM) | 0.08 (≈ 0.264 µM) | 0.04 (≈ 0.132 µM) | 0.02 (≈ 0.0659 µM) |  |  |  |  |  | N#C/C(=C1/SC[C@@H](c2ccccc2F)S1)n1ccnc1 [compound 5]
0.32 (≈ 1.07 µM) | 0.16 (≈ 0.534 µM) |  | 0.08 (≈ 0.267 µM) |  | 0.32 (≈ 1.07 µM) | 0.08 (≈ 0.267 µM) |  |  | 0.32 (≈ 1.07 µM) |  |  |  | Cc1ccccc1[C@@H]1CS/C(=C(/C#N)n2ccnc2)S1 [compound 6]
0.16 (≈ 0.498 µM) | 0.08 (≈ 0.249 µM) | 0.04 (≈ 0.124 µM) | 0.02 (≈ 0.0622 µM) | 0.32 (≈ 0.996 µM) | 0.16 (≈ 0.498 µM) | 0.08 (≈ 0.249 µM) | 0.04 (≈ 0.124 µM) |  |  |  |  |  | N#C/C(=C1/SC[C@@H](c2ccc(F)cc2F)S1)n1ccnc1 [compound 7]
0.01 (≈ 0.0275 µM) |  | 0.02 (≈ 0.0549 µM) | 0.01 (≈ 0.0275 µM) | 0.04 (≈ 0.11 µM) |  | 0.04 (≈ 0.11 µM) | 0.02 (≈ 0.0549 µM) |  |  | 0.04 (≈ 0.11 µM) | 0.16 (≈ 0.439 µM) |  | N#C/C(=C1/SC[C@@H](c2ccccc2Br)S1)n1ccnc1 [compound 8]
0.64 (≈ 1.82 µM) | 0.32 (≈ 0.911 µM) | 0.64 (≈ 1.82 µM) | 0.32 (≈ 0.911 µM) | 2.56 (≈ 7.29 µM) | 1.28 (≈ 3.64 µM) | 1.28 (≈ 3.64 µM) | 0.64 (≈ 1.82 µM) |  |  |  |  |  | N#C/C(=C1/SC[C@@H](c2ccccc2OC(F)F)S1)n1ccnc1 [compound 9]
0.08 (≈ 0.226 µM) | 0.04 (≈ 0.113 µM) | 0.08 (≈ 0.226 µM) | 0.04 (≈ 0.113 µM) | 0.64 (≈ 1.81 µM) | 0.32 (≈ 0.906 µM) | 0.32 (≈ 0.906 µM) | 0.16 (≈ 0.453 µM) |  |  |  |  |  | N#C/C(=C1/SC[C@@H](c2ccccc2C(F)(F)F)S1)n1ccnc1 [compound 10]
0.04 (≈ 0.0903 µM) | 0.02 (≈ 0.0451 µM) | 0.02 (≈ 0.0451 µM) | 0.01 (≈ 0.0226 µM) |  | 0.04 (≈ 0.0903 µM) |  | 0.02 (≈ 0.0451 µM) |  |  |  |  |  | N#C/C(=C1/SC[C@@H](c2ccc(Br)cc2Br)S1)n1ccnc1 [compound 11]
0.04 (≈ 0.118 µM) | 0.02 (≈ 0.0592 µM) | 0.04 (≈ 0.118 µM) | 0.02 (≈ 0.0592 µM) | 0.04 (≈ 0.118 µM) |  | 0.04 (≈ 0.118 µM) | 0.02 (≈ 0.0592 µM) |  |  |  |  | 0.16 (≈ 0.474 µM) | N#C/C(=C1/SC[C@@H](c2ccc(F)cc2Cl)S1)n1ccnc1 [compound 12]
0.02 (≈ 0.0502 µM) | 0.01 (≈ 0.0251 µM) | 0.02 (≈ 0.0502 µM) | 0.01 (≈ 0.0251 µM) | 0.04 (≈ 0.1 µM) | 0.02 (≈ 0.0502 µM) | 0.02 (≈ 0.0502 µM) | 0.01 (≈ 0.0251 µM) |  |  |  |  |  | N#C/C(=C1/SC[C@@H](c2ccc(Br)cc2Cl)S1)n1ccnc1 [compound 13, (R)-(E)-[4-(2-chloro-4-bromophenyl) -1,3-dithiolan-2-ylidene]-1-imidazolylacetonitrile]
